{"source": "PubChem BioAssay AID602236", "about": "(The Scripps Research Institute Molecular Screening Center, 2012)", "note": "Calls of active or inactive are those of the source.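 Rule for the calls: active = IC50 of 10 µM or lower; inactive = IC50 above 10 µM.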"}
{"system": "HEK-293 Gal4-VP16 UAS luciferase reporter, luminescence", "experiment": "VP16 transactivation inhibitor potency, dose response, counter-screen for SRC1 inhibitor project, cell-based, luminescence, high throughput, SRC1 series (AID 602236);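 note: inhibitor potency where hits lower luciferase light from Gal4-VP16 transactivation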"}
{"smiles": "Nc1ccc(Oc2ccccc2-c2ccccc2)cc1", "IC50": "19 µM (inactive)"}
{"smiles": "CNc1cccnc1C=NNC(N)=S", "IC50": "18.4 µM (inactive)"}
{"smiles": "COc1cc2c(cc1OC)C(C)N(C(=O)c1cccc([N+](=O)[O-])c1)CC2", "note": "(configuration not stated)", "IC50": "8.73 µM"}
{"smiles": "Nc1ccc(-c2cc3ccccc3oc2=O)cc1", "IC50": "> 35.8 µM (inactive)"}
{"smiles": "CCN(CC(=O)Nc1ccc(NC(C)=O)cc1)C(=O)C1(c2ccc(Cl)cc2)CCC1", "IC50": "> 35.9 µM (inactive)"}
{"smiles": "Cc1c(C(=O)N/N=C/C(C)C)[nH]c2ccc([N+](=O)[O-])cc12", "IC50": "21.3 µM (inactive)"}
{"smiles": "O=C(Nc1cccc(Cl)c1)Nc1nnc(-c2ccncc2)s1", "IC50": "5.14 µM"}
{"smiles": "Cc1ccc(OCC(=O)c2cc(C)n(Cc3cccs3)c2C)c([N+](=O)[O-])n1", "IC50": "12.1 µM (inactive)"}
{"smiles": "CC(C)(C)c1cc(C(=O)N/N=C/c2ccc(O)cc2)n(-c2ccccc2)n1", "IC50": "21.9 µM (inactive)"}
{"smiles": "CC(C)(C)OC(=O)NCC(=O)Oc1cc2oc(=O)cc(-c3ccccc3)c2cc1Cl", "IC50": "21.8 µM (inactive)"}
{"smiles": "COc1cc2c3c([nH]c2cc1F)C(=O)NCC3", "IC50": "24.8 µM (inactive)"}
{"smiles": "O=C(NC(=S)Nc1ccc(N2CCN(C(=O)c3ccccc3)CC2)cc1)c1cccs1", "IC50": "10.5 µM (inactive)"}
{"smiles": "COC(=O)c1cccc2c1-c1ccccc1/C2=N/O", "IC50": "4.87 µM"}
{"smiles": "CS(=O)(=O)Nc1cccc(NC(=O)C2Cc3c(-c4ccco4)ccnc3O2)c1", "note": "(configuration not stated)", "IC50": "19.3 µM (inactive)"}
{"smiles": "O=C1CCC/C1=c1\\s/c(=C/c2cccnc2)c(=O)n1-c1ccccc1", "IC50": "11.2 µM (inactive)"}
{"smiles": "Cc1ccc(NC(=O)CCC(=O)N/N=C/c2ccc(O)cc2O)cc1", "IC50": "23 µM (inactive)"}
{"smiles": "Cn1nc(C(F)(F)F)c(C#N)c1N1CCN(c2ccccc2)CC1", "IC50": "6.34 µM"}
{"smiles": "c1cc2[nH]snc2c2nc(C3CC3)nc12", "IC50": "3.5 µM"}
{"smiles": "Cc1noc(/C=C/c2ccco2)c1S(=O)(=O)N1CCC(C(=O)Nc2ccc(Cl)cn2)CC1", "IC50": "16.1 µM (inactive)"}
{"smiles": "Cc1nc2c(-c3ccc(Cl)cc3)c(C)[nH]n2c(=O)c1Cc1ccccc1", "IC50": "6.96 µM"}
{"smiles": "CCN(C(=O)c1cc(S(=O)(=O)N2CCCCC2)c[nH]1)c1ccc(OC)cc1", "IC50": "12.8 µM (inactive)"}
{"smiles": "CCn1ccnc1CN(C)Cc1cn[nH]c1-c1ccc(F)cc1F", "IC50": "11 µM (inactive)"}
{"smiles": "O=C(CCC1CCCC1)Nc1ccc(C(=O)NCc2cccnc2)cc1", "IC50": "7.75 µM"}
{"smiles": "Cc1cccn2c(=O)c3cc(C(=O)NCCN4CCOCC4)c(=N)n(Cc4cccnc4)c3nc12", "IC50": "13.5 µM (inactive)"}
{"smiles": "CCCCC(=O)OCC(=O)C1(O)Cc2c(O)c3c(c(O)c2C(OC2CC(NC(=O)C(F)(F)F)C(O)C(C)O2)C1)C(=O)c1c(OC)cccc1C3=O", "note": "(configuration not stated)", "IC50": "6.82 µM"}
{"smiles": "COC(=O)N(NC(=O)C(O)(CCC(C)C)CCC(C)C)c1ccccc1", "IC50": "> 35.9 µM (inactive)"}
{"smiles": "COc1cc([C@@H]2c3cc4c(cc3[C@@H](O[C@@H]3O[C@@H]5CO[C@@H](C)O[C@H]5[C@H](O)[C@H]3O)[C@H]3COC(=O)[C@H]23)OCO4)cc(OC)c1O", "IC50": "> 35.9 µM (inactive)"}
